Experiment: Inhibition of sialidase in Human parainfluenza virus 3 C243
Parameters: species or system Human respirovirus 3

Compound	IC50
CC(=O)N[C@H]1[C@H]([C@H](O)[C@H](O)CO)OC(C(=O)O)=C[C@@H]1O [NEU5AC2EN]	24 µM
CC(=O)N[C@H]1[C@H]([C@H](O)[C@H](O)CO)OC(C(=O)O)=C[C@@H]1OCc1ccccc1	10 µM
CC(=O)N[C@H]1[C@H]([C@H](O)[C@H](O)CO)OC(C(=O)O)=C[C@@H]1OCc1ccccc1-c1ccccc1	30 µM

The remaining molecules from weak to strong by IC50, led by results:

IC50	Compound
25 µM	CC(=O)N[C@H]1[C@H]([C@H](O)[C@H](O)CO)OC(C(=O)O)=C[C@@H]1NC(=N)N [ZANAMIVIR]
10 µM	CCCCCCCCCCO[C@H]1C=C(C(=O)O)O[C@@H]([C@H](O)[C@H](O)CO)[C@@H]1NC(C)=O
5 µM	CCCCCCO[C@H]1C=C(C(=O)O)O[C@@H]([C@H](O)[C@H](O)CO)[C@@H]1NC(C)=O
3 µM	CCO[C@H]1C=C(C(=O)O)O[C@@H]([C@H](O)[C@H](O)CO)[C@@H]1NC(C)=O

From ChEMBL document CHEMBL1139104, “Synthesis and evaluation of 4-O-alkylated 2-deoxy-2,3-didehydro-N-acetylneuraminic acid derivatives as inhibitors of human parainfluenza virus type-3 sialidase activity” (Bioorg Med Chem Lett, 2007)
